For assay [1], the system named is A549 lung carcinoma cells. Nature of the assay: Cell proliferation assay (CellTiter 96 Aqueous). Type of assay: cell-based. The settings on record: Homo sapiens, compounds 48 hours, read-out: Cellular IC50 Proliferation. As to the method: Proliferation was measured using CellTiter 96 Aqueous Non-Radioactive Cell Proliferation Assay Kit (Promega), which determines the number of viable cells in culture based on quantitation of dehydrogenase enzymes, as an indicator of metabolically active cells. A549 lung carcinoma cells were seeded at 2,000 cells/well in a 96-well tissue culture treated plate in DMEM+10% FBS+1× pen/step+1×NEAA and incubated at 37° C. overnight in a CO2 incubator. Cells were treated with compounds for 48 hours. Then viability was measured using CellTiter 96 Aqueous Non-Radioactive Cell Proliferation Assay Kit (Promega). Detection was performed using Biotek Cytation 5 Cell Imaging Multi Mode plate reader.

For assay [2], the system named is phosphorylation of CaMKK2 substrate AMPK at Thr172 in A549 lung carcinoma cells. Nature of the assay: Cell-based phosphorylation assay (Phospho-AMPK Thr172 HTRF). The conditions noted are these: Homo sapiens; A549 cells, compounds 4 hours, 3 uM Calcium Ionophore 30 minutes; read-out: Cellular IC50 Phosphorylation. The method, then:
Cellular CaMKK2 inhibition by compounds was measured by monitoring the phosphorylation of CaMKK2 substrate AMPK at Thr172 in A549 lung carcinoma cells (ATCC) using CISBIO Phospho-AMPK (Thr172) HTRF kit. A549 cells were plated in 96 well plates at 8000 cells/well in DMEM+10% FBS+1× pen/step+1×NEAA and incubated at 37° C. overnight in a CO2 incubator. Cells were then treated with compounds for 4 hours. After cells were stimulated by 3 uM Calcium Ionophore (Sigma) at 37° C. for 30 minutes, cells were washed and then lysed with cell lysis buffer (CisBio) for 30 minutes. […] Plates were incubated overnight and then read using HTRF mode by BMG PHERAstarFS.
Background: TR-FRET usually uses a lanthanide donor and a delayed reading to cut background.

The target in the next assay is CaMKK2 (Homo sapiens, UniProt Q96RR4). Nature of the assay: CaMKK2 binding assay (LanthaScreen TR-FRET). The method, then: The ability of test compounds to bind and inhibit the activity of CaMKK2 were determined using a binding assay using LanthaScreent (Thermofisher) detection reagents in a 384-well plate format using the following assay buffer: 50 mM HEPES (pH7.5), 10 mM MgCl2, 1 mM EGTA, and 0.01% Brij-35.
A 10-point serial dilution of inhibitor compound in 0.5% DMSO was added to each well of the plate. The final assay volume in well was 15 uL. […] A ratio was calculated from the 2 readouts and fitted to a 4-parameter fit to determine the binding IC50.

The structures appear in SMILES notation. Bounds are passed on as bounds.

Chain of CaMKK2 (Q96RR4 whole entry): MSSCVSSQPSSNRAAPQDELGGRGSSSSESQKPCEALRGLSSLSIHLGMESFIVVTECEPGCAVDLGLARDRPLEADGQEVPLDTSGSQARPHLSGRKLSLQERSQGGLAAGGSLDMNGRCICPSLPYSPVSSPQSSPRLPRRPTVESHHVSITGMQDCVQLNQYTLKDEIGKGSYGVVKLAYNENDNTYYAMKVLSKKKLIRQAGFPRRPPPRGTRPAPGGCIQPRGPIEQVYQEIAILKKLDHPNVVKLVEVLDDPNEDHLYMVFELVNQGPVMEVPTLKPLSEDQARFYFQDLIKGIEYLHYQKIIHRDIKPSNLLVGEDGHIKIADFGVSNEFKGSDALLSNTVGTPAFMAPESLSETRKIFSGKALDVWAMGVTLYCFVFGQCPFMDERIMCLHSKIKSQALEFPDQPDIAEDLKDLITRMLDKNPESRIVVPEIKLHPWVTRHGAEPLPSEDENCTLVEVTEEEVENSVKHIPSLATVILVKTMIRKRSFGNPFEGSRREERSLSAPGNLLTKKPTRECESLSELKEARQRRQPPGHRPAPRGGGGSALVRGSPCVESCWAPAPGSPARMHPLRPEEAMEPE

For `O=C(O)c1ccc(-n2ccc3ncc(-c4ccccc4)nc32)cc1C1CCCC1` [Example 1, 2-Cyclopentyl-4-(3-phenylpyrrolo[2,3-b]pyrazin-5-yl)benzoic Acid], the figures for the IC50 (in assay [1]; in assay [2]; on CaMKK2) were more than 10000 nM, less than 100 nM and less than 100 nM, respectively.

`O=C(O)c1ccc(-n2ccc3ncc(-c4cccc(C5CC5)c4)nc32)cc1C1CCCC1` [Example 2, 2-Cyclopentyl-4-[3-(3-cyclopropylphenyl)pyrrolo[2,3-b]pyrazin-5-yl]benzoic Acid]: the IC50 in assay [1] is more than 10000 nM; in assay [2], less than 100 nM; on CaMKK2 it was less than 100 nM.

As for `O=C(O)c1ccc(-c2ccnc3cc(-c4ccccc4)nn23)cc1C1CCCC1` [Example 2.2, 2-Cyclopentyl-4-(2-phenylpyrazolo[1,5-a]pyrimidin-7-yl)benzoic Acid], the IC50 was more than 10000 nM in assay [1], 100 to 1000 nM in assay [2] and less than 100 nM on CaMKK2.

For `O=C(O)c1ccc(-c2ccnc3cc(-c4ccccc4F)nn23)cc1C1CCCC1` [Example 2.6, 2-Cyclopentyl-4-(2-(2-fluorophenyl)pyrazolo[1,5-a]pyrimidin-7-yl)benzoic Acid], the values for the IC50 (in assay [1]; in assay [2]; on CaMKK2) were more than 10000 nM, 100 to 1000 nM and less than 100 nM, respectively.

On to `CCOc1cccc(-c2cc3nccc(-c4ccc(C(=O)O)c(C5CCCC5)c4)n3n2)c1` [Example 2.10, 2-Cyclopentyl-4-(2-(3-ethoxyphenyl)pyrazolo[1,5-a]pyrimidin-7-yl)benzoic Acid], for which the figures for the IC50 (in assay [1]; in assay [2]; on CaMKK2) were more than 10000 nM, 100 to 1000 nM and less than 100 nM, respectively.

For `O=C(O)c1ccc(-c2ccnc3cc(-c4cccc(OCC5CC5)c4)nn23)cc1C1CCCC1` [Example 2.11, 2-Cyclopentyl-4-(2-(3-(cyclopropylmethoxy)phenyl)pyrazolo[1,5-a]pyrimidin-7-yl)benzoic Acid], the IC50 in assay [1] was more than 10000 nM; in assay [2], 100 to 1000 nM; at CaMKK2 it was less than 100 nM.

With `O=C(O)c1ccc(-n2ccc3ncc(-c4cccc(Cl)c4)nc32)cc1C1CCCC1` [Example 3, 4-[3-(3-Chlorophenyl)pyrrolo[2,3-b]pyrazin-5-yl]-2-cyclopentyl-benzoic Acid], the figures for the IC50 (in assay [1]; in assay [2]; at CaMKK2) were more than 10000 nM, 100 to 1000 nM and less than 100 nM, respectively.

With `O=C(O)c1ccc(-c2ccnc3cn(-c4ccc(F)cc4)nc23)cc1C1CCCC1` [Example 3.1, 2-Cyclopentyl-4-[2-(4-fluorophenyl)pyrazolo[4,3-b]pyridin-7-yl]benzoic Acid], the IC50 in assay [1] was more than 10000 nM; in assay [2], 100 to 1000 nM; at CaMKK2, less than 100 nM.

For the molecule `O=C(O)c1ccc(-c2ccnc3cn(-c4ccccc4)nc23)cc1C1CCCC1` [Example 3.2, 2-Cyclopentyl-4-(2-phenyl-2H-pyrazolo[4,3-b]pyridin-7-yl)benzoic Acid], the IC50 is more than 10000 nM in assay [1], less than 100 nM in assay [2] and less than 100 nM on CaMKK2.

For the molecule `Cc1cccc(-n2cc3nccc(-c4ccc(C(=O)O)c(C5CCCC5)c4)c3n2)c1` [Example 3.3, 2-Cyclopentyl-4-(2-(m-tolyl)-2H-pyrazolo[4,3-b]pyridin-7-yl)benzoic Acid], the IC50 in assay [1] was more than 10000 nM; in assay [2], 100 to 1000 nM; at CaMKK2, less than 100 nM.

For the molecule `O=C(O)c1ccc(-c2ccnc3cn(-c4cccc(C5CC5)c4)nc23)cc1C1CCCC1` [Example 3.4, 2-Cyclopentyl-4-(2-(3-cyclopropylphenyl)-2H-pyrazolo[4,3-b]pyridin-7-yl)benzoic Acid], the results for the IC50 (in assay [1]; in assay [2]; at CaMKK2) were more than 10000 nM, less than 100 nM and less than 100 nM, respectively.

With `O=C(O)c1ccc(-c2c(F)cnc3cn(-c4ccc(F)cc4)nc23)cc1C1CCCC1` [Example 3.5, 2-Cyclopentyl-4-(6-fluoro-2-(4-fluorophenyl)-2H-pyrazolo[4,3-b]pyridin-7-yl)benzoic Acid], the IC50 in assay [1] is more than 10000 nM; in assay [2], 100 to 1000 nM; at CaMKK2, less than 100 nM.

For `O=C(O)c1ccc(-c2ccnc3cn(-c4cccc(Cl)c4)nc23)cc1C1CCCC1` [Example 3.6, 4-(2-(3-Chlorophenyl)-2H-pyrazolo[4,3-b]pyridin-7-yl)-2-cyclopentylbenzoic Acid], the IC50 in assay [1] was more than 10000 nM; in assay [2], 100 to 1000 nM; at CaMKK2 it was less than 100 nM.

For the molecule `Cc1cc(Cl)cc(-n2cc3ncc(F)c(-c4ccc(C(=O)O)c(C5CCCC5)c4)c3n2)c1` [Example 3.7, 4-(2-(3-Chloro-5-methylphenyl)-6-fluoro-2H-pyrazolo[4,3-b]pyridin-7-yl)-2-cyclopentylbenzoic Acid], the IC50 in assay [1] is more than 10000 nM; in assay [2], less than 100 nM; on CaMKK2, less than 100 nM.

Consider `O=C(O)c1ccc(-c2c(F)cnc3cn(-c4cccc(C(F)(F)F)c4)nc23)cc1C1CCCC1` [Example 3.9, 2-Cyclopentyl-4-(6-fluoro-2-(3-(trifluoromethyl)phenyl)-2H-pyrazolo[4,3-b]pyridin-7-yl)benzoic Acid], for which the IC50 in assay [1] was more than 10000 nM; in assay [2] it was 100 to 1000 nM; on CaMKK2 it was less than 100 nM.

As to `O=C(O)c1ccc(-c2c(F)cnc3cn(-c4cc(F)cc(F)c4)nc23)cc1C1CCCC1` [Example 3.12, 2-Cyclopentyl-4-(2-(3,5-difluorophenyl)-6-fluoro-2H-pyrazolo[4,3-b]pyridin-7-yl)benzoic Acid], the figures for the IC50 (in assay [1]; in assay [2]; on CaMKK2) were more than 10000 nM, 100 to 1000 nM and less than 100 nM, respectively.

With `O=C(O)c1ccc(-c2c(F)cnc3cn(-c4cc(Cl)cc(Cl)c4)nc23)cc1C1CCCC1` [Example 3.16, 2-Cyclopentyl-4-(2-(3,5-dichlorophenyl)-6-fluoro-2H-pyrazolo[4,3-b]pyridin-7-yl)benzoic Acid], the IC50 in assay [1] is more than 10000 nM; in assay [2] it was less than 100 nM; at CaMKK2, less than 100 nM.

For the molecule `COc1cc(F)cc(-n2cc3ncc(F)c(-c4ccc(C(=O)O)c(C5CCCC5)c4)c3n2)c1` [Example 3.17, 2-Cyclopentyl-4-(6-fluoro-2-(3-fluoro-5-methoxyphenyl)-2H-pyrazolo[4,3-b]pyridin-7-yl)benzoic Acid], the IC50 in assay [1] is more than 10000 nM; in assay [2], 100 to 1000 nM; on CaMKK2, less than 100 nM.

Turning to `Cc1cc(OC(F)(F)F)cc(-n2cc3ncc(F)c(-c4ccc(C(=O)O)c(C5CCCC5)c4)c3n2)c1` [Example 3.18, 2-Cyclopentyl-4-(6-fluoro-2-(3-methyl-5-(trifluoromethoxy)phenyl)-2H-pyrazolo[4,3-b]pyridin-7-yl)benzoic Acid], the IC50 in assay [1] was more than 10000 nM; in assay [2], 100 to 1000 nM; at CaMKK2, less than 100 nM.

In the case of `O=C(O)c1ccc(-c2ccnn3cc(-c4ccccc4)cc23)cc1C1CCCC1` [Example 4.1, 2-Cyclopentyl-4-(6-phenylpyrrolo[1,2-b]pyridazin-4-yl)benzoic Acid], the IC50 in assay [1] was more than 10000 nM; in assay [2], 100 to 1000 nM; on CaMKK2, less than 100 nM.

`Cc1cc(C)cc(-c2cnc3ccn(-c4ccc(C(=O)O)c(C5CCNCC5)c4)c3n2)c1` [Example 29, 4-(3-(3,5-dimethylphenyl)-5H-pyrrolo[2,3-b]pyrazin-5-yl)-2-(piperidin-4-yl)benzoic Acid] yielded an IC50 on CaMKK2 of less than 100 nM.

Regarding `Cc1cc(C)cc(-c2cnc3ccn(-c4ccc(C(=O)O)c(N[C@@H]5CCNC5)c4)c3n2)c1` [Example 31, (R)-4-(3-(3,5-dimethylphenyl)-5H-pyrrolo[2,3-b]pyrazin-5-yl)-2-(pyrrolidin-3-ylamino)benzoic Acid], the IC50 on CaMKK2 is less than 100 nM.

Turning to `Cc1cc(C)cc(-c2cnc3ccn(-c4ccc(C(=O)O)c(N[C@H]5CCNC5)c4)c3n2)c1` [Example 32, (S)-4-(3-(3,5-dimethylphenyl)-5H-pyrrolo[2,3-b]pyrazin-5-yl)-2-(pyrrolidin-3-ylamino)benzoic Acid], the IC50 at CaMKK2 is less than 100 nM.

Turning to `Cc1cc(C)cc(-c2cnc3ccn(-c4ccc(C(=O)O)c(N[C@@H]5CCCNC5)c4)c3n2)c1` [Example 33, (R)-4-(3-(3,5-dimethylphenyl)-5H-pyrrolo[2,3-b]pyrazin-5-yl)-2-(piperidin-3-ylamino)benzoic Acid], the IC50 at CaMKK2 was less than 100 nM.

Take `Cc1cc(C)cc(-c2cnc3ccn(-c4ccc(C(=O)O)c(NC5CCNCC5)c4)c3n2)c1` [Example 34, 4-(3-(3,5-dimethylphenyl)-5H-pyrrolo[2,3-b]pyrazin-5-yl)-2-(piperidin-4-ylamino)benzoic Acid]: the IC50 at CaMKK2 was less than 100 nM.

`Cc1cc(C)cc(-c2cnc3ccn(-c4ccc(C(=O)O)c(O[C@@H]5CCNC5)c4)c3n2)c1` [Example 35, (R)-4-(3-(3,5-dimethylphenyl)-5H-pyrrolo[2,3-b]pyrazin-5-yl)-2-(pyrrolidin-3-yloxy)benzoic Acid] yielded an IC50 at CaMKK2 of 100 to 1000 nM.

The values above are taken from US20240246969A1, “HETEROCYCLIC DERIVATIVES AS CAMKK2 INHIBITORS” (Bristol-Myers Squibb Company, priority 2021, published 2024).
